The source of these data is patent US6288091A, “Antiherpes virus compounds and methods for their preparation and use” (Boehringer Ingelheim Ltd., priority 1999, dated 2001).

In the first assay the test system is HCMV (strain AD169). The assay can be described thus: Inhibition of HCMV replication, plaque reduction assay (PRA, Hs-68 cells). As to conditions: Human betaherpesvirus 5, AD169, Hs68, Group 1 Table 1 entries, read-out: PRA CMV EC50. It is filed as cell-based, Human Cytomegalovirus (HCMV). Here is the method: C) Inhibition of Human Cytomegalovirus (HCMV) Replication
The effect of compounds on the replication of HCMV has been measured by using an ELISA-based assay (ELISA) and a plaque reduction assay (PRA).
Hs-68 cells (ATCC # CRL 1635) were seeded in 12-well plates at 83,000 cells/well in 1 mL of DMEM medium (Gibco Canada Inc.) supplemented with 10% fetal bovine serum (FBS, Gibco Canada Inc.). The plates were incubated for 3 days at 37° to allow the cells to reach 80-90% confluency prior to the assay.
The medium was removed from the cells by aspiration. The cells were then infected with approximately 50 PFU of HCMV (strain AD169, ATCC VR-538) in DMEM medium supplemented with 5% inactivated FBS (assay medium). The virus was allowed to adsorb to cells for 2 h at 37°. Following viral adsorption, the medium was removed from the wells by aspiration. The cells were then incubated with or without 1 mL of appropriate concentrations of test reagent in assay medium. After 4 days of incubation at 37°, the medium was exchanged with fresh medium containing test compound and 4 days later the cells were fixed with 1% aqueous formaldehyde and stained with a 2% crystal violet solution in 20% ethanol in water. Microscopic plaques were counted using a stereomicroscope. Drug effects were calculated as a percent reduction in the number of plaques in the presence of each drug concentration compared to the number observed in the absence of drug. Ganciclovir was used as a positive control in all experiments.
The EC50 values obtained according to this assay for certain thiazolyl derivatives of this invention are listed in the following tables under the heading PRA CMV.
With `Nc1nc(-c2ccc(NC(=O)CNC(=O)c3cccnc3)cc2)cs1` [Example 20], the EC50 was found to be 60 µM. Still for that read-out and setting: the same measure for `Nc1nc(-c2ccc(NC(=O)CN(Cc3ccccc3)C(=O)c3ccsc3)cc2)cs1` [Example 115]: 49 µM; for `Nc1nc(-c2ccc(NC(=O)CN(Cc3ccccc3)C(=O)Cc3cccs3)cc2)cs1` [Example 116]: 19 µM. On the same count and under the same terms, the same measure for `Nc1nc(-c2ccc(NC(=O)CN(Cc3ccccc3)C(=O)Cc3ccsc3)cc2)cs1` [Example 117]: 35 µM; for `Nc1nc(-c2ccc(NC(=O)CN(Cc3ccc(F)cc3)C(=O)Cc3ccccn3)cc2)cs1` [Example 124]: 28 µM. Regarding `Nc1nc(-c2ccc(NC(=O)CN(Cc3cccc(F)c3)C(=O)Cc3ccccn3)cc2)cs1` [Example 126], the EC50 came to 35 µM. The same measure, in the same setting: the same measure for `Cc1ccccc1CN(CC(=O)Nc1ccc(-c2csc(N)n2)cc1)C(=O)c1cccs1` [Example 128]: 28 µM; for `Cc1ccccc1CN(CC(=O)Nc1ccc(-c2csc(N)n2)cc1)C(=O)COc1c(C)cccc1C` [Example 129]: 12 µM. Still for that read-out and setting: the same measure for `Cc1cc(C)nc(SCC(=O)N(CC(=O)Nc2ccc(-c3csc(N)n3)cc2)Cc2ccccc2C)n1` [Example 130]: 8.8 µM; for `Cc1ccccc1CN(CC(=O)Nc1ccc(-c2csc(N)n2)cc1)C(=O)Cc1cccs1` [Example 131]: 16 µM. With `Cc1ccccc1CN(CC(=O)Nc1ccc(-c2csc(N)n2)cc1)C(=O)Cc1ccsc1` [Example 132], the EC50 came out at 14 µM. Same read-out and setting: with `Cc1ccccc1CN(CC(=O)Nc1ccc(-c2csc(N)n2)cc1)C(=O)c1ccsc1` [Example 133] the figure was 17 µM.

Staying with this assay, now noted: Human betaherpesvirus 5, AD169, Hs68, Group 1 Table 2 entries, read-out: PRA CMV EC50.
As to `Nc1nc(-c2ccc(NC(=O)CCN(Cc3ccccc3)C(=O)c3cccnc3)cc2)cs1` [Example 6], the EC50 turned out to be 22 µM. Same read-out and setting: with `Nc1nc(-c2ccc(NC(=O)CCN(Cc3ccccc3)Cc3ccccn3)cc2)cs1` [Example 26] the figure was 14 µM; with `Nc1nc(-c2ccc(NC(=O)CCN(CCN3CCCC3)Cc3ccccc3)cc2)cs1` [Example 27], 15 µM; with `Nc1nc(-c2ccc(NC(=O)CCN(Cc3ccccc3)Cc3cccnc3)cc2)cs1` [Example 29], 14 µM. The same measure, in the same setting: with `Nc1nc(-c2ccc(NC(=O)CCN(Cc3ccccc3)Cc3ccccc3O)cc2)cs1` [Example 30] the figure was 13 µM.

Still in this assay, the particulars now being: Human betaherpesvirus 5, AD169, Hs68, Group 1 Table 3 entries, read-out: PRA CMV EC50.
Regarding `Cc1cc(C)nc(SCC(=O)N(CC(=O)Nc2ccc(-c3csc(NC(=O)OC(C)(C)C)n3)cc2)Cc2ccccc2)n1` [Example 21], the EC50 came to 1.2 µM. With `C[C@H](c1ccccc1)N(CC(=O)Nc1ccc(-c2csc(NC(=O)OC(C)(C)C)n2)cc1)C(=O)C1CCCCC1` [Example 22], the EC50 was determined as 1.3 µM. Consider `C[C@H](c1ccccc1)N(CC(=O)Nc1ccc(-c2csc(NC(=O)OC(C)(C)C)n2)cc1)C(=O)Cc1ccccn1` [Example 23], for which the EC50 was 2.8 µM. Turning to `C[C@H](c1ccccc1)N(CC(=O)Nc1ccc(-c2csc(NC(=O)OC(C)(C)C)n2)cc1)C(=O)c1ccncc1` [Example 24], the EC50 turned out to be 3.7 µM.

For `C[C@@H](c1ccccc1)N(CC(=O)Nc1ccc(-c2csc(NC(=O)OC(C)(C)C)n2)cc1)C(=O)Cc1ccccn1` [Example 25], the EC50 was determined as 2.7 µM.

Consider `CC(=O)Nc1nc(-c2ccc(NC(=O)CN(C(=O)C3CCCCC3)[C@H](C)c3ccccc3)cc2)cs1` [Example 26], for which the EC50 was 15 µM.

The same assay, now with this note: Human betaherpesvirus 5, AD169, Hs68, Group 1 Table 4 entries, read-out: PRA CMV EC50.
In the case of `CC(C)(C)OC(=O)Nc1nc(-c2ccc(NC(=O)CCN(Cc3ccccc3)Cc3ccccc3)cc2)cs1` [Example 1], the EC50 was 1.6 µM. On to `CC(C)(C)NC(=O)Nc1nc(-c2ccc(NC(=O)CCN(Cc3ccccc3)Cc3ccccc3)cc2)cs1` [Example 2], for which the concentration for a half-maximal effect (EC50) came out at 1.5 µM.

The assay is the same for the next values; noted with them: Human betaherpesvirus 5, AD169, Hs68, Group 1 Table 5 entries, read-out: PRA CMV EC50.
Regarding `CN[C@H](Cc1ccccc1)C(=O)Nc1ccc(-c2csc(N)n2)cc1` [Example 18], the EC50 was greater than 48 µM.

Staying with this assay, now noted: Human betaherpesvirus 5, AD169, Hs68, Group 2 Table 1 entries, read-out: PRA CMV EC50.
For `Nc1nc(-c2ccc(NC(=O)NCCc3ccccc3)cc2)cs1` [Example 13], the EC50 is greater than 4 µM. As for `C#CCNC(=O)Nc1ccc(-c2csc(N)n2)cc1` [Example 17], the EC50 is greater than 74 µM. Still for that read-out and setting: with `Nc1nc(-c2ccc(NC(=O)Nc3nccs3)cc2)cs1` [Example 18] the figure was greater than 56 µM; with `Nc1nc(-c2ccc(NC(=O)NCCc3c[nH]c4ccccc34)cc2)cs1` [Example 19], 12 µM; with `CN(CCc1ccncc1)C(=O)Nc1ccc(-c2csc(NC(=O)OC(C)(C)C)n2)cc1` [Example 29], 3.9 µM. `CCCCN(C)C(=O)Nc1ccc(-c2csc(NC(=O)OC(C)(C)C)n2)cc1` [Example 30]: the EC50 amounted to 2.2 µM. Still for that read-out and setting: with `CCCCN(CC)C(=O)Nc1ccc(-c2csc(NC(=O)OC(C)(C)C)n2)cc1` [Example 31] the figure was 2 µM; with `CCCCN(CCO)C(=O)Nc1ccc(-c2csc(NC(=O)OC(C)(C)C)n2)cc1` [Example 32], 2 µM; with `CCCCN(CC#N)C(=O)Nc1ccc(-c2csc(NC(=O)OC(C)(C)C)n2)cc1` [Example 33], 2.4 µM.

As to `CCCCNc1nc(-c2ccc(NC(=O)N(CCCC)CCCC)cc2)cs1` [Example 34], the EC50 is 10 µM. Consider `CCCCN(CCCC)C(=O)Nc1ccc(-c2csc(Nc3ccccn3)n2)cc1` [Example 35], for which the EC50 was 2.2 µM. `CCCCN(CCCC)C(=O)Nc1ccc(-c2csc(Nc3cccnc3)n2)cc1` [Example 36]: the EC50 came to 3 µM.

Another assay concerns HSV-1 strain F or KOS. Kind of assay: Inhibition of herpes simplex virus (HSV-1) replication in cell culture (BHK-21 cells, glycoprotein C ELISA). It is filed as cell-based. As to conditions: Human alphaherpesvirus 1, BHK-21, Group 1 Table 2 entries. Here is the method: B) Inhibition of Herpes Simplex Virus (HSV-1) Replication in Cell Culture
BHK-21 cells clone 13 (ATCC CCL10) were incubated for two days in 850 cm^2 roller bottles (2×10^7 cells/bottle) with A-MEM medium (Gibco Canada Inc., Burlington, Ontario, Canada) supplemented with 8% (v/v) fetal bovine serum (FBS, Gibco Canada, Inc.). The cells were trypsinized and then 3,000 cells in 100 μL of fresh medium were transferred into each well of a 96-well microtiter plate. The cells were incubated at […] for a period of 3 days to reach a density of 50,000 cells per well. The cells were washed twice with 100 μL of α-MEM supplemented with 2% heat inactivated FBS and incubated for 1-2 hours in 100 μL of the same medium.
Thereafter, the cells were infected with HSV-1 strain F or KOS (multiplicity of infection =0.05 PFU/cell) in 50 μL of α-MEM supplemented with 2% heat inactivated FBS. Following one hour of virus absorption at 37°, the medium was removed and the cells were washed with α-MEM supplemented with 2% heat inactivated FBS (2×100 μL). The cells were incubated with or without 100 μL of the appropriate concentration of test reagent in α-MEM medium supplemented with 2% heat inactivated FBS. After 24 hours of incubation at 37°, the extent of viral replication was determined by an ELISA assay; for instance, the following assay that detects the late glycoprotein C of HSV-1.
Cells were fixed in the microtiter plate with 100 μL of 0.063% glutaraldehyde in phosphate buffered saline for 30 min at room temperature. The microtiter plate was then washed once with casein blocking solution and blocked with 200 μL of the same solution for one hour at room temperature. Thereafter, 100 μL of mAb C11 recognizing the glycoprotein C of HSV-1 (see E. Trybala et al., Journal of General Virology, 1994, 75, 743) was added to each well for two hours at room temperature. The plate was washed three times with phosphate buffered saline containing 0.05% polyoxyethylene (20) sorbitan monooleate. The cells were incubated with 100 μL of sheep anti-mouse IgG horseradish peroxidase for one hour at room temperature in the dark.
The plate was washed three times with 200 μL of the above-noted phosphate buffer saline preparation, and then once with 0.1 M sodium citrate (pH 4.5). Thereafter, 100 μL of orthophenylenediamine dihydrochloride (OPD, Gibco, Canada Inc.) was added to each well. The plate was agitated on a microplate shaker for 30 min in the dark. Color development was monitored at 450 nm using a microplate spectrophotometer.
SAS was used to calculate % inhibition of viral replication and to generate EC50 values.
As to `Nc1nc(-c2ccc(NC(=O)CCN(Cc3ccccc3)C(=O)c3cccnc3)cc2)cs1` [Example 6], the EC50 stood at 4.8 µM.

The target in the next assay is T1, HSV-1 helicase-primase (Human herpesvirus 1, UniProt P10189+P10236).
T1 construct: made in house; host or cells: Sf21 insect cells triply infected with recombinant baculoviruses (UL5, UL8, UL52)
T1 sequence (P10192 whole entry): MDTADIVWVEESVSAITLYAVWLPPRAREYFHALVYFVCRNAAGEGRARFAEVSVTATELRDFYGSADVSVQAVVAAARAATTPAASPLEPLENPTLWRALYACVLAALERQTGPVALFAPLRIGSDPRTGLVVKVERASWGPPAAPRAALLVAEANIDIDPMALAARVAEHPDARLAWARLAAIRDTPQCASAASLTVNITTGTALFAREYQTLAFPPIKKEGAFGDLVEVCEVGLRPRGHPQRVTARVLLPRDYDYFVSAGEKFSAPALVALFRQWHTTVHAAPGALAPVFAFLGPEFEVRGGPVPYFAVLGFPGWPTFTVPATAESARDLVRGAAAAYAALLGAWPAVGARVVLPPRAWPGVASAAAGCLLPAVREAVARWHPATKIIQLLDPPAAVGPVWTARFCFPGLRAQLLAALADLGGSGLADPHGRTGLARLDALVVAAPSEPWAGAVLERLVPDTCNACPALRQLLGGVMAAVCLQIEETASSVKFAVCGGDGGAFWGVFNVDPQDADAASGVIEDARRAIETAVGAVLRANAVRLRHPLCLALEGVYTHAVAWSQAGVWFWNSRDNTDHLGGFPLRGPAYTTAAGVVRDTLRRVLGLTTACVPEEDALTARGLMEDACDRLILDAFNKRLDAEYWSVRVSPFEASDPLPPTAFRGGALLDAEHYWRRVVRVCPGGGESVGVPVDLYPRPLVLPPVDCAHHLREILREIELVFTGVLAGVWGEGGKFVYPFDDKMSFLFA
T1 sequence (P10236 whole entry): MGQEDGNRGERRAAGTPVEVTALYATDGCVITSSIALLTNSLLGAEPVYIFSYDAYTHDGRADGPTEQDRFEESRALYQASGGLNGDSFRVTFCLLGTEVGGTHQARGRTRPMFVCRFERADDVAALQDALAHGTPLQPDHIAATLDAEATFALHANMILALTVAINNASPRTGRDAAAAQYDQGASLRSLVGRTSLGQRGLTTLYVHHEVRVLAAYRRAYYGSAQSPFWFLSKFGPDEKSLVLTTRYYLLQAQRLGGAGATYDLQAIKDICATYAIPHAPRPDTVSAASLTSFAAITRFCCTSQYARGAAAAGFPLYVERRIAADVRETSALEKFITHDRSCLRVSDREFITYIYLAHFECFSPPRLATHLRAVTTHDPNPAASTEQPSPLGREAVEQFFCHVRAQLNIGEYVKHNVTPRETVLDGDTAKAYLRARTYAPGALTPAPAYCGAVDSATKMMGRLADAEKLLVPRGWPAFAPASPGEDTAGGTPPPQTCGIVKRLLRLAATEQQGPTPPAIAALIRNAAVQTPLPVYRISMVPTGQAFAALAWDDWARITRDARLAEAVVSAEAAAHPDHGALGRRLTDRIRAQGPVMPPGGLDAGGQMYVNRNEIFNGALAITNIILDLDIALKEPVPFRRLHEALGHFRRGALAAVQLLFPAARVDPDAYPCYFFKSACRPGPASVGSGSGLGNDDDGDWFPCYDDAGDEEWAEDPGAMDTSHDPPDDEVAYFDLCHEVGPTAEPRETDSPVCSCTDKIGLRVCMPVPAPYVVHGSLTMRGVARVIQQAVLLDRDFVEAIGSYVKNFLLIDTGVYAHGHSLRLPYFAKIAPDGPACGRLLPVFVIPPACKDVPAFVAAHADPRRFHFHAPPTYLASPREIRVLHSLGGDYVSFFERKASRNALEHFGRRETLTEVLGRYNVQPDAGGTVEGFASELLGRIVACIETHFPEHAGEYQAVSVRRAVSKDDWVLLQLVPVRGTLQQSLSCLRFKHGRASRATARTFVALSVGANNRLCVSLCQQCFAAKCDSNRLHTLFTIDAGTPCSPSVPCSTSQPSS
T1 sequence (P10189 whole entry): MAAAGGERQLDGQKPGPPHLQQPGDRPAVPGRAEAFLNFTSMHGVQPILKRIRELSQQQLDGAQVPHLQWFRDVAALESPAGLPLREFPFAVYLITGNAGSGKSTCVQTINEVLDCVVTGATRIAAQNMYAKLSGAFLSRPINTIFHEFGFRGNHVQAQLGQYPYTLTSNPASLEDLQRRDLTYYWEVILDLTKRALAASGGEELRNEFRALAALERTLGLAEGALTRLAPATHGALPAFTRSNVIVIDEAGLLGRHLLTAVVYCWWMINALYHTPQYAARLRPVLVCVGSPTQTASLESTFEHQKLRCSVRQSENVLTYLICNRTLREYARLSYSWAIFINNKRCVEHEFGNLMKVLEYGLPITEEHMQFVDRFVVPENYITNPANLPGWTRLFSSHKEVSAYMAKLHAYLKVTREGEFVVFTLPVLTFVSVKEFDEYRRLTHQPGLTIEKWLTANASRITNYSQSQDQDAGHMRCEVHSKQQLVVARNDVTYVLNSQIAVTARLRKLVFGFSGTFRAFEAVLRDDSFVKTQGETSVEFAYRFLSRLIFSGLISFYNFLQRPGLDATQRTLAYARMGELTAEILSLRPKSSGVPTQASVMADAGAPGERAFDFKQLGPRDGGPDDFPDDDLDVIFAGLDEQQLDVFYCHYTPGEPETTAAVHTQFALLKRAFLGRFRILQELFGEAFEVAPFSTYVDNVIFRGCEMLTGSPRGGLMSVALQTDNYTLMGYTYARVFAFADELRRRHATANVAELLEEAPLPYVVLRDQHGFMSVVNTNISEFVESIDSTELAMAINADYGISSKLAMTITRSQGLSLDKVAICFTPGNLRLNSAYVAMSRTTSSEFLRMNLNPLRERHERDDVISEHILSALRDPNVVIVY
Kind of assay: HSV-1 DNA-dependent ATPase assay (inhibition of HSV-1 helicase-primase). It is filed as biochemical. Conditions: Group 1 Table 1 entries. The text has this:
A) HSV-1 DNA-Dependent ATP Assay (an in Vitro Assay Based on the Inhibition of HSV-1 Helicase-primase).
HSV-1 helicase-primase holoenzyme was produced in triply infected Sf21 cells using recombinant baculoviruses expressing the UL5, UL8 and UL52 helicase-primase subunits, as described by S. Dracheva et al., J. Biol. Chem. 1995, 270, 14148. The crude enzyme was purified by ammonium sulfate precipitation, Source 15Q® chromatography and Sephacryl® S-300 HR gel filtration (both purification systems can be obtained from Pharmacia Biotech Inc., Montreal, Quebec, Canada), see S. Dracheva et al., supra.
The DNA-dependent ATPase assay, described by J. J. Crute et al., Nucleic Acids Res. 1988, 16, 6585, was modified and used to evaluate the capability of the compounds of Group 1-formula 1 to inhibit HSV-1 helicase-primase activity. The reaction mixtures (80 μL each) contained 40 mM 4-(2-hydroxyethyl)-1-piperazineethanesulfonic acid (HEPES, pH 7.5), 10% (v/v) glycerol, 5.5 mM MgCl2, 1 mM DL-dithiothreitol (DTT), 50 μg/mL acetylated bovine serum albumin, 3.3% (v/v) DMSO, 4 mM ATP, 25 μM single-stranded M13 DNA hybridized to double-tailed 68-mer oligonucleotide and 3 μg/mL HSV-1 helicase-primase. After incubation for 20 min at 34°, formation of inorganic phosphate from hydrolysis of ATP was monitored spectrophotometrically at 650 nm using acidic ammonium molybdate/malachite green reagent, P. A. Lanzetta et al., Anal. Biochem. 1979, 100, 95. DNA-dependent ATPase activity was calculated from the net absorbance change in the presence and absence of inhibition.
`Nc1nc(-c2ccc(NC(=O)CNC(=O)c3cccnc3)cc2)cs1` [Example 20] showed an IC50 of 23 µM.

The same assay, now with this note: Group 1 Table 5 entries.
In turn, `CN[C@H](Cc1ccccc1)C(=O)Nc1ccc(-c2csc(N)n2)cc1` [Example 18] had an IC50 of 24.5 µM.

The same assay, now with this note: Group 2 Table 1 entries.
Regarding `Nc1nc(-c2ccc(NC(=O)NCCc3ccccc3)cc2)cs1` [Example 13], half-maximal inhibition (IC50) was put at 37 µM.

The molecule `C#CCNC(=O)Nc1ccc(-c2csc(N)n2)cc1` [Example 17] had an IC50 of 33 µM.
